Literature values in patent publication US6413988B1, “Prucalopride oral solution” (Janssen Pharmaceutica N.V., priority 1999, dated 2002).

Columns and labels:
5-HT2A receptors = 5-HT2A receptors (Homo sapiens, UniProt P28223)
5-HT4 receptors = 5-HT4 receptors (Homo sapiens, UniProt Q13639)
Sequence of 5-HT4 receptors (Q13639 whole entry): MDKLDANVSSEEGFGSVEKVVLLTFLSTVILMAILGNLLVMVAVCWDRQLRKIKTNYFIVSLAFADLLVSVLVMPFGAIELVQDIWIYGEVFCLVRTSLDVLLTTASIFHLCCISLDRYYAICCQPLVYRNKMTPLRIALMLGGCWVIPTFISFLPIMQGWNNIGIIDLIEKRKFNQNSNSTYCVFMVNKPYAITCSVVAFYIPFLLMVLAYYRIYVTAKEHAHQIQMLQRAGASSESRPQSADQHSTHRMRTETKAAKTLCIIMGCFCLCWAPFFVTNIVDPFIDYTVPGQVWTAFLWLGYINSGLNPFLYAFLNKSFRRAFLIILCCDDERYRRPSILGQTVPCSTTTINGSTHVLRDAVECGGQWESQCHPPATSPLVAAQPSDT

Sequence of 5-HT2A receptors (P28223 whole entry): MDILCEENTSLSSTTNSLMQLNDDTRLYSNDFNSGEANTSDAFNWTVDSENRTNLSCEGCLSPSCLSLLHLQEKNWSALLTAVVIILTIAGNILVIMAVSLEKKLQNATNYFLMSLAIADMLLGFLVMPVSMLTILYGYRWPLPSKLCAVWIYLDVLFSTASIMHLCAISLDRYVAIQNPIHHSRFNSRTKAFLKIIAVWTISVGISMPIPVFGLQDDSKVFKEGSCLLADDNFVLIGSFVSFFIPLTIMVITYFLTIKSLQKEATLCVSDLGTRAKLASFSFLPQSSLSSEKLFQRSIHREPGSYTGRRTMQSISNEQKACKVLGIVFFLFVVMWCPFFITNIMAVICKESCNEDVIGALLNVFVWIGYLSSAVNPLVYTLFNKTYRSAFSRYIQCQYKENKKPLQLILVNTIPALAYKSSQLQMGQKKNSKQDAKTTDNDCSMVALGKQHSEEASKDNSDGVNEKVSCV

## COCCCN1CCC(NC(=O)c2cc(Cl)c(N)c3c2OCC3)CC1 [Prucalopride, 4-amino-5-chloro-2,3-dihydro-N-[1-(3-methoxypropyl)-4-piperidinyl]-7-benzofuran-carboxamide]
5-HT3 receptors
  affinity for 5-HT3 receptors: no affinity
5-HT2A receptors
  affinity for 5-HT2A receptors: no affinity
5-HT4 receptors
  agonist of 5-HT4 receptors: potent and selective agonist
colon; in animals
  colonic motility and defecation: stimulates colonic motility and defecation
colon; propagated over the length of the colon as a peristaltic wave
  giant contractions in the colon: induces giant contractions in the colon
